Reference: ChEMBL document CHEMBL1201862, “PubChem BioAssay data set” (2004)
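Five concentrations, 48 hours, 96-well plates. Here, GI50 denotes the concentration required for 50% inhibition of growth.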 Active and inactive are the calls of the source. No stated cut-off is given here; in the data, active = GI50 up to about 1.1 µM and inactive = higher.

Columns and labels:
Assay in all cases: NCI-60 cell line screen, 48 h
[1] = system: SNB-75
[2] = system: RPMI-8226
[3] = system: EKVX
[4] = system: RXF 393
[5] = system: HCT-116
[6] = system: HCT-15
[7] = system: SNB-19
[8] = system: KM12
[9] = system: TK-10
[10] = system: CAKI-1
[11] = system: OVCAR-8
[12] = system: NCI-H460
[13] = system: MOLT-4
[14] = system: SF-539
[15] = system: A498
[16] = system: MDA-MB-435
[17] = system: SR
[18] = system: LOX IMVI
[19] = system: SK-MEL-28
[20] = system: HOP-62

Structure (SMILES) | GI50 [1] | GI50 [2] | GI50 [3] | GI50 [4] | GI50 [5] | GI50 [6] [µM] | GI50 [7] | GI50 [8] | GI50 [9] | GI50 [10] | GI50 [11] | GI50 [12] | GI50 [13] | GI50 [14] | GI50 [15] | GI50 [16] | GI50 [17] | GI50 [18] | GI50 [19] | GI50 [20]
C/C(=N\C1CCCCC1)c1ccccc1O | 57.5 µM (inactive) | 87.5 µM (inactive) | > 100 µM (inactive) | > 100 µM (inactive) | > 100 µM (inactive) | > 100 | > 100 µM (inactive) | > 100 µM (inactive) | > 100 µM (inactive) | > 100 µM (inactive) | > 100 µM (inactive) | > 100 µM (inactive) | > 100 µM (inactive) | > 100 µM (inactive) | > 100 µM (inactive) | > 100 µM (inactive) | > 100 µM (inactive) | > 100 µM (inactive) | > 100 µM (inactive) | > 100 µM (inactive)
O=C1NC(=S)NC(=O)C1=Cc1cccc2cc3ccccc3cc12 | 1.59 µM (inactive) | 1.24 µM (inactive) | 2.91 µM (inactive) | 1.66 µM (inactive) | 1.95 µM (inactive) | 1.68 | 2.28 µM (inactive) | 1.98 µM (inactive) | 1.89 µM (inactive) | 2.03 µM (inactive) | 1.86 µM (inactive) | 2.12 µM (inactive) | 2.12 µM (inactive) | 1.58 µM (inactive) | 1.97 µM (inactive) | 2.12 µM (inactive) | 1.44 µM (inactive) | 1.67 µM (inactive) | 2.57 µM (inactive) | 1.84 µM (inactive)
CO[C@H]1[C@@H](O)[C@@H](C)O[C@@H](O[C@H]2CC[C@@]3(C)[C@H](CC[C@@H]4[C@@H]3CC[C@]3(C)[C@@H](C5=CC(=O)OC5)CC[C@]43O)C2)[C@@H]1O [ODOROSIDE H] | 0.00601 µM (active) | 0.0111 µM (active) | 0.00474 µM (active) | 0.00394 µM (active) | 0.00482 µM (active) | 0.00766 | 0.0215 µM (active) | 0.0112 µM (active) | 0.00336 µM (active) | 0.0048 µM (active) | 0.00661 µM (active) | 0.003 µM (active) | < 0.0025 µM (active) | 0.00468 µM (active) | 0.0787 µM (active) | 0.00908 µM (active) | 0.00304 µM (active) | 0.00689 µM (active) | 0.0394 µM (active) | 0.00361 µM (active)
O/N=C(/CC(O)(C(F)(F)F)C(F)(F)F)c1ccccc1 | > 10 µM (inactive) | > 10 µM (inactive) | > 10 µM (inactive) | > 10 µM (inactive) | > 10 µM (inactive) | > 10 | > 10 µM (inactive) | > 10 µM (inactive) | > 10 µM (inactive) | > 10 µM (inactive) | > 10 µM (inactive) | > 10 µM (inactive) | > 10 µM (inactive) | > 10 µM (inactive) | > 10 µM (inactive) | > 10 µM (inactive) | > 10 µM (inactive) | > 10 µM (inactive) | > 10 µM (inactive) | > 10 µM (inactive)
Cn1c(=O)nc2n(CCO)ccnc-2c1=O | > 100 µM (inactive) | > 100 µM (inactive) | > 100 µM (inactive) | > 100 µM (inactive) | > 100 µM (inactive) | > 100 | > 100 µM (inactive) | > 100 µM (inactive) | > 100 µM (inactive) | > 100 µM (inactive) | > 100 µM (inactive) | > 100 µM (inactive) | > 100 µM (inactive) | > 100 µM (inactive) | > 100 µM (inactive) | > 100 µM (inactive) | > 100 µM (inactive) | > 100 µM (inactive) | > 100 µM (inactive) | > 100 µM (inactive)
c1ccc2cc(CN3CCC(C4CCN(Cc5ccc6ccccc6c5)CC4)CC3)ccc2c1 | 2.67 µM (inactive) | 2.48 µM (inactive) | 8.24 µM (inactive) | 2.74 µM (inactive) | 6.79 µM (inactive) | 3.18 | 11.5 µM (inactive) | 2.97 µM (inactive) | 3.82 µM (inactive) | 5.53 µM (inactive) | 3.92 µM (inactive) | 3.11 µM (inactive) | 3.41 µM (inactive) | 1.8 µM (inactive) | 10.8 µM (inactive) | 1.75 µM (inactive) | 3.24 µM (inactive) | 2.22 µM (inactive) | 1.87 µM (inactive) | 2.49 µM (inactive)
CC1=Nc2ccccc2/C1=C\c1c(C)[nH]c2ccccc12 | 18.7 µM (inactive) | 16.3 µM (inactive) | 12.2 µM (inactive) | 10.6 µM (inactive) | 11.4 µM (inactive) | 12.9 | 16.6 µM (inactive) | 13.2 µM (inactive) | 16.3 µM (inactive) | 13.8 µM (inactive) | 12.4 µM (inactive) | 17.8 µM (inactive) | 3.4 µM (inactive) | 24.5 µM (inactive) | 17.5 µM (inactive) | 6.59 µM (inactive) | 5.9 µM (inactive) | 13.1 µM (inactive) | 16.6 µM (inactive) | 23.2 µM (inactive)
O=C1C=CC2(C=C1)CCC(=O)O2 | 19 µM (inactive) | 5.89 µM (inactive) | 17.9 µM (inactive) | 14.6 µM (inactive) | 14.8 µM (inactive) | 7.52 | 17.5 µM (inactive) | 15.3 µM (inactive) | 11.9 µM (inactive) | 5.87 µM (inactive) | 16.2 µM (inactive) | 14.3 µM (inactive) | > 100 µM (inactive) | 12.2 µM (inactive) | 36.3 µM (inactive) | 15.5 µM (inactive) | 6.38 µM (inactive) | 4.83 µM (inactive) | 16 µM (inactive) | 20.2 µM (inactive)
CSc1n[nH]c2[nH]nc(C)c12 | > 100 µM (inactive) | > 100 µM (inactive) | > 100 µM (inactive) | > 100 µM (inactive) | > 100 µM (inactive) | > 100 | > 100 µM (inactive) | > 100 µM (inactive) | > 100 µM (inactive) | > 100 µM (inactive) | > 100 µM (inactive) | > 100 µM (inactive) | 8.53 µM (inactive) | > 100 µM (inactive) | > 100 µM (inactive) | > 100 µM (inactive) | 5.22 µM (inactive) | > 100 µM (inactive) | > 100 µM (inactive) | > 100 µM (inactive)
COc1cccc(Nc2nc(N)nc(N)c2N=O)c1 | 10.8 µM (inactive) | 16.9 µM (inactive) | 19.4 µM (inactive) | 28.6 µM (inactive) | 18.4 µM (inactive) | 22 | 38.6 µM (inactive) | 29.1 µM (inactive) | 19.8 µM (inactive) | 11.3 µM (inactive) | 16.1 µM (inactive) | 13.6 µM (inactive) | 7.24 µM (inactive) | 15.3 µM (inactive) | 21.7 µM (inactive) | 16.9 µM (inactive) | 18.5 µM (inactive) | 15.1 µM (inactive) | 22 µM (inactive) | 28.8 µM (inactive)
